Assay results reported in US8895717B2, “Delivery of siRNA by neutral lipid compositions” (The Board of Regents of the University of Texas System, priority 2005, dated 2014).
d = 2'-deoxy (DNA); r = 2'-OH (RNA)

Experiments:
[1] = system: SKOV3 cells; test: Cytotoxicity assay (MTT), SKOV3; format: cell-based, human
Experimental: The medium was exchanged after 48 hours with increasing concentrations of docetaxel (obtained from Aventis Pharma, Bridgewater, N.J.) dissolved in ethanol (final concentration range, 0.1-10,000 nmol/L prepared in medium) or cisplatin (purchased from LKT Laboratories, Inc., St. Paul, Minn.) dissolved in water. After a 96-hour incubation, 50 μL of 0.15% 3-(4,5-dimethylthiazol-2-yl)-2,5-diphenyltetrazolium bromide was added to each well and incubated for 2 hours. The supernatant was removed, and cells were dissolved in 100 μL DMSO. The absorbance at 570 nm was recorded using a FALCON microplate reader (Becton Dickinson Labware, Bedford, Mass.), and cell survival expressed as a percent increase or decrease above control conditions, after subtracting blank A570 readings. The IC50 concentration was determined by finding the A570 reading midpoint between maximal and minimal readings and finding the chemotherapy concentration that intersects the growth curve at that A570 reading.

[2] = system: SKOV3ip1 cells; test: In vivo therapy with DOPC-FAK siRNA, SKOV3ip1 model; set-up: species or system nude mice; conditions: for Incidence (%) / No. Nodules: siRNA in DOPC twice weekly, docetaxel 50 μg weekly
Experimental: siRNA for in vivo delivery was incorporated into the phospholipid 1,2-dioleoyl-sn-glycero-3-phosphatidylcholine (DOPC). DOPC and siRNA were mixed in the presence of excess tertiary-butanol at a ratio of […], as previously described (Landen et al., 2005). Tween-20 was added to the mixture at a ratio of 1:19. The mixture was vortexed, frozen in an acetone/dry ice bath, and lyophilized. Before in vivo administration, this preparation was hydrated with normal (0.9%) saline at a concentration of 15 μg/ml to achieve the desired dose of 150-200 μl per injection. To estimate the quantity of siRNA not taken up by liposomes free siRNA was separated from liposomes by using filter units with a 30,000 nominal molecular weight limit (Millipore Corp, Billerica, Mass.). The liposomal suspension was added to the filters and centrifuged at 5,000 g for 40 min at room temperature. Fractions were collected, the material trapped in the filter was reconstituted with 0.9% saline, and the amount of siRNA in the collected fraction and eluent were measured by spectrophotometry.
To produce tumors, SKOV3ip1, Hey A8-MDR cells (1×10^6 cells/0.2 ml of HBSS) and Hey A8 cells (2.5×10^5 cells/0.2 ml of HBSS) were injected interperitoneally (i.p.) into the mice. For in vivo injections, cells were trypsinized and centrifuged at 1000 rpm for 7 minutes at 4° C., washed twice with PBS and reconstituted in serum-free Hank's balanced salt solution (HBSS, Life Technologies, Carlsbad, Calif.). Only single-cell suspensions with >95% viability, as determined by trypan blue exclusion, were used for the in vivo injections. Mice (n=10 per group) were monitored for adverse effects of therapy and were sacrificed on day 35 (SKOV3ip1) or day 28 (HeyA8 or HeyA8-MDR) or when any of the mice began to appear moribund. Mouse weight, tumor weight, and tumor distribution were recorded. Tissue specimens were snap frozen for lysate preparation, fixed in formalin for paraffin embedding or frozen on OCT compound (Miles, Inc., Elkhart, Ind.) for frozen slide preparation.
Based on the results of preliminary dose-response studies, a series of three separate therapy studies were initiated using the optimal FAK siRNA dosage. Tumor cells were injected i.p. and 7 days later, the mice were randomly assigned to five treatment groups: empty liposome twice weekly, non-specific control […] siRNA (3 μg) twice weekly, control FAK siRNA (3 μg) twice weekly in combination with 50 μg docetaxel weekly, FAK siRNA twice weekly and FAK siRNA (3 μg) twice weekly in addition to 50 μg docetaxel weekly.
The SKOV3ip1 or HeyA8 ovarian cancer cells were implanted into the peritoneal cavity of athymic nude mice for experiments designed to test the therapeutic potential of FAK-targeted inhibition of gene expression. Seven days later, therapy was started according to the following five treatment groups: 1) empty liposomes; 2) non-specific siRNA-DOPC; 3) docetaxel plus non-specific siRNA-DOPC; 4) FAK targeted siRNA-DOPC; and 5) docetaxel plus FAK-targeted siRNA-DOPC. The animals were sacrificed after 4 weeks of therapy and a necropsy was performed. The data for these therapies' effects on SKOV3ip1 and HeyA8 are summarized in FIGS. 6A and 6B, respectively. […] Treatment with FAK siRNA alone or docetaxel plus control siRNA were effective in inhibiting tumor growth (54 to 74%) in both cell lines compared with control (FIG. 13).

| Substance | effect on sensitivity to docetaxel ([1]; all ovarian cancer cell lines tested) | efficacy compared with empty liposomes [2] | Incidence (%) [2] [%] | No. Nodules [2] | fold greater docetaxel cytotoxicity after FAK down-regulation ([1]; SKOV3, siRNA 48 hours before docetaxel, at 50% cytotoxicity) [fold] |
| --- | --- | --- | --- | --- | --- |
| control siRNA: sense r(UUUUCCGAACGUGUCACGU)dTT, antisense r(ACGUGACACGUUCGGAGAA)dTT, no homology with human mRNA; in vivo in DOPC (sense UUUUCCGAACGUGUCACGUTT; antisense ACGUGACACGUUCGGAGAATT; sugars from the 5' end r19 d2, backbone not given here) | did not affect sensitivity of ovarian cancer cells to docetaxel | not effective against SKOV3ip1 tumors | 100 | 15 |  |
| FAK siRNA: sense r(CCACCUGGGCCAGUAUUAU)d(TT), antisense r(AUAAUACUGGCCCAGGUGG)d(TT); for in vivo delivery incorporated into DOPC (sense CCACCUGGGCCAGUAUUAUTT; antisense AUAAUACUGGCCCAGGUGGTT; sugars from the 5' end r19 d2, backbone not given here) |  |  | 70 | 3.7 | ~5 |
